Results on one molecule are retold here after patent publication US20240342068A1, “CYCLODEXTRIN-BASED ETHYL LAUROYL ARGINATE (LAE) CLATHRATE, AND PREPARATION METHOD AND USE THEREOF” (NANJING UNIVERSITY OF FINANCE & ECONOMICS, priority 2022, published 2024).

Structures are written as SMILES.

A short description of data set [1]: pH stability by turbidity and particle size. It counts as physicochemical. The note with it: aqueous solution containing 1% w/v LAE, pH 1 to 11, room temperature 24 h. As for the experimental part: (§1) The pH stability of a system was characterized by measuring turbidity and particle size. A 1% w/v LAE aqueous solution and an HPβCD/LAE clathrate aqueous solution (4% w/v) containing a same amount of 1% w/v LAE were prepared, respectively. The pH values of the LAE aqueous solution and the HPβCD/LAE clathrate aqueous solution were adjusted to 1, 3, 5, 7, 9, and 11 with 0.01 mol/L to 0.5 mol/L of sodium hydroxide and hydrochloric acid solutions, respectively. After allowing to stand at room temperature for 24 h, the absorbance at 600 nm of the LAE aqueous solutions and the HPβCD/LAE clathrate aqueous solutions with different pH values were measured with a UV spectrophotometer. The absorbance was used to represent a turbidity of the solution, while pure water was used as a reference. The particle size of the solution was measured with a ZS90 nanometer particle size analyzer. Photographs were taken to record the changes of the above solutions stored at 4° C. for 0 h, 24 h, 7 d, and 35 d to characterize the low-temperature storage stability of the samples.

For data set [2] the following is noted: pH range; cited from earlier work.
The nature of data set [3]: Low-temperature storage stability at 4° C. (appearance). It counts as physicochemical. On the procedure:
as §1

For data set [4] the following is noted: in water at room temperature; cited from earlier work.
Another data set deals with Staphylococcus aureus. Put plainly: Antibacterial activity by Oxford cup method with xanthan gum as interfering substance. Type of data set: cell-based. The note with it: 0.20% LAE, xanthan gum present, compared with no xanthan gum. As for the experimental part:
In order to test the performance of the HPβCD LAE clathrate prepared in Example 1, the antibacterial activity of the HPβCD/LAE clathrate in the presence of an anionic polysaccharide (xanthan gum) as an interfering substance was measured by an Oxford cup method. Groups A to G were set up, and each group had 3 parallel experiments. 15 mL of nutrient agar was added to each petri dish, cooled and solidified, and 100 μL of a Staphylococcus aureus solution (10^5 CFU/mL) was spread on each petri dish. […] Each group was placed with an Oxford cup, and 130 μL of an antibacterial solution was added to each Oxford cup; each of the Oxford cups was diffused in a 4° C. refrigerator for 24 h, cultured at 37° C. for 24 h, and an inhibition zone diameter (IZD) was measured with a micrometer. The mass percentages of the antibacterial solution added in Groups A to G were as follows: A: 0.20% LAE-no xanthan gum; B: 0.20% LAE; C: 0.08% HPβCD/LAE clathrate-0.02% LAE; D: 0.16% HPβCD/LAE clathrate-0.04% LAE; E: 0.40% HPβCD/LAE clathrate-0.10% LAE; F: 0.60% HPβCD/LAE clathrate-0.15% LAE; and G: 0.80% HPβCD/LAE clathrate-0.20% LAE. The […] was the raw material in Example 1.

Turning to `CCCCCCCCCCCC(=O)N[C@@H](CCCN=C(N)N)C(=O)OCC.Cl` [LAE, ethyl lauroyl arginate hydrochloride], the “pH stability (turbidity, particle size)” value in data set [1] was “obviously aggregated outside the pH value of 3 to 7”. Further, the chemical stability result in data set [2] is “desirable chemical stability at a pH value of 3 to 7”. Besides, the low-temperature storage appearance result in data set [3] (prolonged storage at low temperature (4° C., up to 35 d)) was “eventually fully precipitated”; in data set [3] (storage at low temperature (4° C.) for 24 h, pH 1 to 11) it was “except for the solution of pH=7, all other LAE solutions had obvious crystallization”. The solubility entry in data set [4] is recorded as “less than 2%”. Further, the inhibition zone entry in the data set on Staphylococcus aureus was “significantly reduced the inhibition zone of LAE”.
